This is an account of results in patent publication US7652063B2, “10-hydroxy-11-dihydroprostaglandin analogs as selective EP4 agonists” (Allergan, Inc., priority 2004, dated 2010).

A value given as a limit tells only on which side of the number the result lay.

One test deals with T1, HEP3D (Homo sapiens, UniProt P43115).
T1 sequence (P43115 1-374 isoform P43115-4): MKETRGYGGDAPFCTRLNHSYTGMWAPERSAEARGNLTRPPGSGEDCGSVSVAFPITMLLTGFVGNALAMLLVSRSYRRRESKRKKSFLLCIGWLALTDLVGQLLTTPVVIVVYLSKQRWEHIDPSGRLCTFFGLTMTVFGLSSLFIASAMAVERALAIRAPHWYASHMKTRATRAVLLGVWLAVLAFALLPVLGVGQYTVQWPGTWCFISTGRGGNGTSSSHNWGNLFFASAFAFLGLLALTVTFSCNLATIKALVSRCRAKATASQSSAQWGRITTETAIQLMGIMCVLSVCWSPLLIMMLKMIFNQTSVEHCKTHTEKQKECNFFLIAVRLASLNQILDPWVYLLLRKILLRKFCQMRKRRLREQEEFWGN
The experiment in a line: Radioligand binding, hEP3D. The following applies: competition vs 5 nM [3H]-PGE2.

The target of the next test is T2, EP4 receptors (Homo sapiens, UniProt P35408).
T2 construct: expressed in transfected cells; host or cells: HEK-293 (membrane fraction)
T2 sequence (P35408 whole entry): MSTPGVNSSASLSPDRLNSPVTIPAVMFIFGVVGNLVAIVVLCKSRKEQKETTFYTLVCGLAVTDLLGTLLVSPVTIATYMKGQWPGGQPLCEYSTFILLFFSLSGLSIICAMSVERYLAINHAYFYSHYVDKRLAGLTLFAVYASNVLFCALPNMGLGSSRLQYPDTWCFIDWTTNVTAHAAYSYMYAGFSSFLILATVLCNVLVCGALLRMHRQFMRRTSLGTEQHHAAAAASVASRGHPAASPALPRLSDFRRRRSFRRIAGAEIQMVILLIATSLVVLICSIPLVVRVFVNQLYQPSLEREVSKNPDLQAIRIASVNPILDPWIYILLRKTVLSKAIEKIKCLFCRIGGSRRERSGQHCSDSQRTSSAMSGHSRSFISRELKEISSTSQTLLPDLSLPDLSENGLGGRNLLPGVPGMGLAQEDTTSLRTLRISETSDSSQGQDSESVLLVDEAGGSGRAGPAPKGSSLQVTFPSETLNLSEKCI
The experiment in a line: Radioligand binding, hEP4. Conditions: HEK-293 membranes, competition vs 5 nM [3H]-PGE2. The protocol:
Cells Stably Expressing EP1, EP2, EP4 and FP Receptors
HEK-293 cells stably expressing the human or feline FP receptor, or EP1, EP2, or EP4 receptors were washed with TME buffer, scraped from the bottom of the flasks, and homogenized for 30 sec using a Brinkman PT 10/35 polytron. TME buffer was added to achieve a final 40 ml volume in the centrifuge tubes (the composition of TME is 100 mM TRIS base, 20 mM MgCl2, […]; 10N HCl is added to achieve a pH of 7.4).
The cell homogenate was centrifuged at 19000 r.p.m. for 20 min at 4° C. using a Beckman Ti-60 rotor. The resultant pellet was resuspended in TME buffer to give a final 1 mg/ml protein concentration, as determined by Biorad assay. Radioligand binding competition assays vs. [^3H-]17 -phenyl PGF2α (5 nM) were performed in a 100 μl volume for 60 min. Binding reactions were started by adding plasma membrane fraction. The reaction was terminated by the addition of 4 ml ice-cold TRIS-HCl buffer and rapid filtration through glass fiber GF/B filters using a Brandel cell harvester. The filters were washed 3 times with ice-cold buffer and oven dried for one hour.
[^3H-] PGE2 (specific activity 180 Ci mmol) was used as the radioligand for EP receptors. [^3H] […] 17-phenyl PGF2α and non-specific binding determined with 10^−5 M of unlabeled PGE2, or 17-phenyl PGF2α, according to receptor subtype studied.

The target in the next test is T3, hEP4/Gqs5 (Homo sapiens, UniProt P35408).
T3 construct: expressed in transfected cells; host or cells: HEK-293(EBNA)
T3 sequence (P35408 whole entry): as above
The experiment in a line: FLIPR calcium signal, hEP4. It counts as cell-based. Conditions: HEK-293(EBNA) cells, read-out: FUNCTIONAL (nm) HEP4. As for the experimental part: (§1) Methods for Flipr™ Studies
(§2) HEK-293(EBNA) cells, stably expressing one type or subtype of recombinant human prostaglandin receptors (prostaglandin receptors expressed: hDP/Gqs5; hEP1; hEP2/Gqs5; hEP3A/Gqi5; hEP4/Gqs5; hFP; hIP; hTP), were cultured in 100 mm culture dishes in high-glucose DMEM medium containing 10% fetal bovine serum, 2 mM 1-glutamine, 250 μg/ml geneticin (G418) and 200 μg/ml hygromycin B as selection markers, and 100 units/ml penicillin G, 100 μg/ml streptomycin and 0.25 μg/ml amphotericin B.
(§3) (b) Calcium Signal Studies on the Flipr™
(§4) Cells were seeded at a density of 5×10^4 cells per well in Biocoat® Poly-D-lysine-coated black-wall, clear-bottom 96-well plates (Becton-Dickinson) and allowed to attach overnight in an incubator at 37° C. Cells were then washed two times with HBSS-HEPES buffer (Hanks Balanced Salt Solution without bicarbonate and phenol red, 20 mM HEPES, pH 7.4) using a Denley Cellwash plate washer (Labsystems). […]
(§5) Cells were excited with an Argon laser at 488 nm, and emission was measured through a 510-570 nm bandwidth emission filter (FLIPR™, Molecular Devices, Sunnyvale, Calif.). […] The peak increase in fluorescence intensity was recorded for each well. […] The peak fluorescence change in each drug-containing well was then expressed relative to the controls. […]

The target of a further test is T4, hTP (Homo sapiens, UniProt P21731).
T4 construct: expressed in transfected cells; host or cells: HEK-293(EBNA)
T4 sequence (P21731 1-343): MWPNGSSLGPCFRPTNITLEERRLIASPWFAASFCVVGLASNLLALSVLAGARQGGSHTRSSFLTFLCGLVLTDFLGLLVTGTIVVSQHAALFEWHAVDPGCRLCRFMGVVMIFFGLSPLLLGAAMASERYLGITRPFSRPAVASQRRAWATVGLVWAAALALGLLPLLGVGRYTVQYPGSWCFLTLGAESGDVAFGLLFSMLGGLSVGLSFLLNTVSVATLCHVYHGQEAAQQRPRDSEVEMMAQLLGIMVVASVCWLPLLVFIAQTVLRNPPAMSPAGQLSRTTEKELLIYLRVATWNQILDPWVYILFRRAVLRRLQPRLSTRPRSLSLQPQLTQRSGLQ
The experiment in a line: FLIPR calcium signal, hTP. It counts as cell-based. The following applies: HEK-293(EBNA) cells, read-out: FUNCTIONAL (nm) HTP. As for the experimental part: as §1, §2, §3, §4, §5

The IC50 is the concentration that inhibits the measured activity by half. In the case of `O=C(O)CCC/C=C\C[C@H]1C(=O)C(O)C[C@@H]1/C=C/C(O)CCc1sc2ccccc2c1Cl` (single isomer, unassigned) [Compound 9H], the IC50 on HEP3D was above 10000 nM; at EP4 receptors, 170 nM. Besides, the EC50 on hEP4/Gqs5 was 53 nM.
On to `O=C(O)CCC/C=C\C[C@H]1C(=O)C(O)C[C@@H]1/C=C/C(O)CCc1sc2ccccc2c1Cl` (single isomer, unassigned) [Compound 9L], for which the IC50 on HEP3D stood at 8700 nM; on EP4 receptors, 200 nM. For the same molecule, the EC50 at hEP4/Gqs5 is 78 nM; on hTP, above 10000 nM.
